Data on 24 molecules can be found in patent US20230121086A1, “RORgT INHIBITOR, PREPARATION METHOD THEREOF AND USE THEREOF” (SUNSHINE LAKE PHARMA CO., LTD., priority 2020, published 2023).

Like-named read-outs stand apart in the source and are kept apart here.

The test concerns the target T1, RORγt (Homo sapiens, UniProt P51449).
T1 construct: […]
T1 sequence (P51449 269-508 limits assumed): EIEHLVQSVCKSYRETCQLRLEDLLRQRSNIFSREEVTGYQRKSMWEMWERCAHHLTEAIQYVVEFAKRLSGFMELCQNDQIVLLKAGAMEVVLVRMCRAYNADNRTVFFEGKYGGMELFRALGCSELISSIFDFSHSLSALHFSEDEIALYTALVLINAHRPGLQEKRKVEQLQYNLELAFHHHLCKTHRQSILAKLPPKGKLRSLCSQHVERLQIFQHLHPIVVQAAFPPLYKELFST
Kind of test: Fluorescence resonance energy transfer (FRET) test, inhibitory activity of RORγt. Type of test: biochemical.

Where [1] appears, read: FRET, B-RORγt LBD / Biotin-SRC1, read-out: IC50.

Consider `CCS(=O)(=O)c1ccc([C@H](COC(N)=O)NC(=O)c2cnc(N3C[C@@H](Oc4ccc(Cl)cn4)C[C@H]3COC(F)F)c(F)c2)cc1` [Example 164, (R)-2-(6-((2S,4S)-4-((5-chloropyridin-2-yl)oxy)-2-((difluoromethoxy)methyl)pyrrolidin-1-yl)-5-fluoronicotinamido)-2-(4-(ethylsulfonyl)phenyl)ethyl carbamate], for which, under setting [1], the IC50 came to 3.1 nM.

`CCS(=O)(=O)c1ccc([C@H](CC#N)NC(=O)c2ccc(N3CC(Oc4ccc(C(F)(F)F)nc4)C[C@H]3COC(F)F)cc2)cc1` (stereo in doubt) [Example 57, N-((S)-2-cyano-1-(4-(ethylsulfonyl)phenyl)ethyl)-4-((2S,4S)-2-((difluoromethoxy)methyl)-4-((6-(trifluoromethyl)pyridine-3-yl)oxy)pyrrolidin-1-yl)benzamide]: under setting [1], the IC50 amounted to 41 nM.

On to `CCS(=O)(=O)c1ccc([C@H](CN(C)C)NC(=O)c2ccc(N3C[C@@H](Oc4ccc(C(F)(F)F)cc4)C[C@H]3COC(F)F)cc2)cc1` [Example 103], for which, under setting [1], the IC50 worked out at 60 nM.

Turning to `CCS(=O)(=O)c1ccc([C@H](CC#N)NC(=O)c2ccc(N3C[C@@H](Oc4ccc(OC(F)(F)F)nc4)C[C@H]3COC(F)F)cc2)cc1` [Example 11, N-((S)-2-cyano-1-(4-(ethylsulfonyl)phenyl)ethyl)-4-((2S,4S)-2-((difluoromethoxy)methyl)-4-((6-(trifluoromethoxy)pyridin-3-yl)oxy)pyrrolidin-1-yl)benzamide], under setting [1], the 50% inhibitory concentration (IC50) is 27 nM.

As to `[2H]C([2H])(NC(=O)c1ccc(N2C[C@@H](Oc3ccc(OC(F)(F)F)cn3)C[C@H]2COC(F)F)cc1)c1ccc(S(=O)(=O)CC)cc1` [Example 169, N-(Dideuterium(4-(ethylsulfonyl)phenyl)methyl)-4-((2S,4S)-2-((difluoromethoxy)methyl)-4-((5-(trifluoromethoxy)pyridin-2-yl)oxy)pyrrolidin-1-yl) benzamide], the IC50 amounted to 6 nM.

Regarding `CCS(=O)(=O)c1ccc([C@H](CC#N)NC(=O)c2ccc(N3C[C@@H](OCc4ccc(OC(F)(F)F)cc4)C[C@H]3COC(F)F)cc2)cc1` [Example 39, N—((S)-2-cyano-1-(4-(ethylsulfonyl)phenyl)ethyl)-4-((2S,4S)-2-((difluoromethoxy)methyl)-4-((4-(trifluoromethoxy)benzyl)oxy)pyrrolidin-1-yl)benzamide], the IC50 under setting [1] is 67.5 nM.

For the molecule `CCS(=O)(=O)c1ccc([C@H](COCC(=O)O)NC(=O)c2ccc(N3C[C@@H](Oc4ccc(-n5cccn5)cn4)C[C@H]3COC(F)F)nc2)cc1` [Example 175, 2-((R)-2-(6-((2S,4S)-4-((5-(1H-pyrazol-1-yl)pyridine-2-yl)oxy)-2-((difluoromethoxy)methyl)pyrrolidin-1-yl)nicotinylamino)-2-(4-(ethylsulfonyl)phenyl)ethoxy)acetic Acid], under setting [1], the IC50 is 39.2 nM.

Consider `CCC(F)(F)OC[C@H]1CC[C@@H](c2ccc(C(F)(F)F)cc2)CN1c1ccc(C(=O)N[C@H](CC#N)c2ccc(S(=O)(=O)CC)cc2)cc1` [Example 110-2, N—((R)-2-cyano-1-(4-(ethylsulfonyl)phenyl)ethyl)-4-((2R,5S)-2-((1,1-difluoropropoxy)methyl)-5-(4-(trifluoromethyl)phenyl)piperidin-1-yl)benzamide], for which, under setting [1], the IC50 was 7 nM.

`CCS(=O)(=O)c1ccc([C@H](CC#N)NC(=O)c2ccc(N3C[C@@H](Oc4ccc(-n5nccn5)cc4)C[C@H]3COC(F)F)cc2)cc1` [Example 157, 4-((2S,4S)-4-(4-(2H-1,2,3-triazol-2-yl)phenoxy)-2-((difluoromethoxy)methyl)pyrrolidin-1-yl)-N—((S)-2-cyano-1-(4-(ethylsulfonyl)phenyl)ethyl)benzamide]: under setting [1], the IC50 is 6.9 nM.

Take `CCS(=O)(=O)c1ccc([C@H](COC(N)=O)NC(=O)c2cnc(N3CC(F)(F)CC3c3cccc(F)c3)nc2)cc1` (stereo partly drawn) [Example 179, (2R)-2-(2-(4,4-difluoro-2-(3-fluorophenyl)pyrrolidin-1-yl)pyrimidine-5-carboxamido)-2-(4-(ethylsulfonyl)phenyl)ethyl carbamate]: under setting [1], the IC50 was 9.4 nM.

For `CCS(=O)(=O)c1ccc([C@H](CC#N)NC(=O)c2ccc(N3C[C@@H](Oc4ccc(Cl)cc4)C[C@H]3COC(F)F)cc2)cc1` [Example 21, 4-((2S)-4-(4-chlorophenoxy)-2-((difluoromethoxy)methyl)pyrrolidin-1-yl)-N-((S)-2-cyano-1-(4-(ethylsulfonyl)phenyl)ethyl)benzamide], the IC50 under setting [1] is 2 nM.

In the case of `CCS(=O)(=O)c1ccc([C@H](CC#N)NC(=O)c2ccc(N3C[C@@H](Oc4ccc(OC(F)(F)F)cn4)C[C@H]3COC(F)F)cc2)cc1` [Example 8, N-((S)-2-cyano-1-(4-(ethylsulfonyl)phenyl)ethyl)-4-((2S,4S)-2-((difluoromethoxy)methyl)-4-((5-(trifluoromethoxy)pyridin-2-yl)oxy)pyrrolidin-1-yl)benzamide], the IC50 under setting [1] stood at 18.8 nM.

For `CCS(=O)(=O)c1ccc([C@H](COC(N)=O)NC(=O)c2ccc(N3C[C@@H](Oc4ccc(-n5nccn5)cn4)C[C@H]3COC(F)F)nc2)cc1` [Example 173, (R)-2-(6-((2S,4S)-4-((5-(2H-1,2,3-triazol-2-yl)pyridine-2-yl)oxy)-2-((difluoromethoxy)methyl)pyrrolidin-1-yl)nicotinylamino)-2-(4-(ethylsulfonyl)phenyl)ethyl carbamate], the IC50 under setting [1] is 3.8 nM.

As to `CCS(=O)(=O)c1ccc([C@H](CC#N)NC(=O)c2ccc(N3CC(Oc4ccc(C(F)(F)F)cc4)C[C@H]3COC(F)F)cc2)nc1` (stereo in doubt) [Example 49, N-((S)-2-cyano-1-(5-(ethylsulfonyl)pyridin-2-yl)ethyl)-4-((2S,4S)-2-((difluoromethoxy)methyl)-4-(4-(trifluoromethyl)phenoxy)pyrrolidin-1-yl)benzamide], under setting [1], the IC50 turned out to be 28 nM.

Regarding `CCS(=O)(=O)c1ccc([C@H](CC#N)NC(=O)c2ccc(N3CC(Oc4ccc(C(F)(F)F)cc4)C[C@H]3COC(F)(F)F)cc2)cc1` (stereo in doubt) [Example 70, N-((S)-2-cyano-1-(4-(ethylsulfonyl)phenyl)ethyl)-4-((2S,4S)-2-((trifluoromethoxy)methyl)-4-(4-(trifluoromethyl)phenoxy)pyrrolidin-1-yl)benzamide], the IC50 under setting [1] is 26 nM.

Regarding `CCS(=O)(=O)c1ccc([C@H](CC#N)NC(=O)c2ccc(N3CC(Oc4ccc(C(F)(F)F)cc4)C[C@H]3COC(F)F)c(OC)c2)cc1` (stereo in doubt) [Example 60, N-((S)-2-cyano-1-(4-(ethylsulfonyl)phenyl)ethyl)-4-((2S,4S)-2-((difluoromethoxy)methyl)-4-(4-(trifluoromethyl)phenoxy)pyrrolidin-1-yl)-3-methoxybenzamide], the IC50 under setting [1] worked out at 81 nM.

Regarding `CCS(=O)(=O)c1ccc([C@H](COC(N)=O)NC(=O)c2ccc(N3C[C@@H](Oc4ccc(C(F)(F)F)cc4)C[C@H]3COC(F)F)cc2)cc1` [Example 149, (R)-2-(4-((2S,4S)-2-((difluoromethoxy)methyl)-4-(4-(trifluoromethyl)phenoxy)pyrrolidin-1-yl)benzoylamino)-2-(4-(ethylsulfonyl)phenyl)ethyl carbamate], the 50% inhibitory concentration (IC50) under setting [1] came out at 7.7 nM.

As to `CCS(=O)(=O)c1ccc([C@H](CC#N)NC(=O)c2ccc(N3C[C@H](c4ccccc4)CC[C@H]3COC(F)F)cc2)cc1` [Example 115-2, N—((S)-2-cyano-1-(4-(ethylsulfonyl)phenyl)ethyl)-4-((2S,5S)-2-((difluoromethoxy)methyl)-5-phenylpiperidin-1-yl)benzamide], under setting [1], the IC50 stood at 26 nM.

For `CS(=O)(=O)c1ccc([C@H](CC#N)NC(=O)c2ccc(N3C[C@@H](Oc4ccc(C(F)(F)F)cc4)C[C@H]3COC(F)F)cc2)cc1` [Example 62, N-((S)-2-cyano-1-(4-(methylsulfonyl)phenyl)ethyl)-4-((2S,4S)-2-((difluoromethoxy)methyl)-4-(4-(trifluoromethyl)phenoxy)pyrrolidin-1-yl)benzamide], under setting [1], the IC50 was 22 nM.

As for `CCS(=O)(=O)c1ccc([C@H](COC(=O)N(C)C)NC(=O)c2ccc(N3C[C@@H](Oc4ccc(C(F)(F)F)cc4)C[C@H]3COC(F)F)cc2)cc1` [Example 154, (R)-2-(4-((2S,4S)-2-((difluoromethoxy)methyl)-4-(4-(trifluoromethyl)phenoxy)pyrrolidin-1-yl)benzoylamino)-2-(4-(ethylsulfonyl)phenyl)ethyl dimethylcarbamate], the IC50 under setting [1] was 47 nM.

For `CCS(=O)(=O)c1ccc([C@@H](CC#N)NC(=O)c2ccc(N3C[C@@H](Oc4ccc(OC(F)(F)F)cn4)C[C@H]3COC(F)F)cc2)cc1` [Example 17, N-((R)-2-cyano-1-(4-(ethylsulfonyl)phenyl)ethyl)-4-((2S,4S)-2-((difluoromethoxy)methyl)-4-((5-(trifluoromethoxy)pyridin-2-yl)oxy)pyrrolidin-1-yl)benzamide], under setting [1], the IC50 turned out to be 14.9 nM.

For the molecule `[2H]C([2H])([2H])OC[C@@H]1C[C@H](Oc2ccc(C(F)(F)F)cc2)CN1c1ccc(C(=O)N[C@@H](CC#N)c2ccc(S(=O)(=O)CC)cc2)cc1` [Example 151, N—((S)-2-cyano-1-(4-(ethylsulfonyl)phenyl)ethyl)-4-((2S,4S)-2-((3,3,3-d3-methoxy)methyl)-4-(4-(trifluoromethyl)phenoxy)pyrrolidin-1-yl)benzamide], the IC50 under setting [1] came to 8.7 nM.

For `CCS(=O)(=O)c1ccc([C@H](CCC(=O)O)NC(=O)c2ccc(N3C[C@@H](Oc4ccc(C(F)(F)F)cc4)C[C@H]3COC(F)F)cc2)cc1` [Example 105, (S)-4-(4-((2S,4S)-2-((difluoromethoxy)methyl)-4-(4-(trifluoromethyl)phenoxy)pyrrolidin-1-yl)benzoylamino)-4-(4-(ethylsulfonyl)phenyl)butyric Acid], the IC50 under setting [1] came out at 7 nM.

In the case of `CCS(=O)(=O)c1ccc([C@H](COCCOC)NC(=O)c2ccc(N3C[C@@H](Oc4ccc(C(F)(F)F)cc4)C[C@H]3COC(F)F)cc2)cc1` [Example 104], under setting [1], the IC50 amounted to 12 nM.

As usually defined, the IC50 is the concentration needed to halve the response being measured.
